System: NS-SV-AC cells
Experiment: TNF-α-induced cytotoxicity, MTT assay
Format: cell-based, human
Settings: cells exposed to TNF-α and EGCG in presence of inhibitor
Protocol: TNF-α cyotoxicity: NS-SV-AC cells (0.5×10<4> cells/well) were seeded in a 96-well microplate and either treated for 24 hr with EGCC as described above (or not treated in the control), in the presence of 100 ng/ml TNFα and 10 μg/ml cyclohexamide. After the treatments, viability was determined by the MTT assay. The cells in each well were washed with 200 μl of phosphate-buffered saline (PBS) and incubated with 100 μl of 2% (w/v) MTT in a solution of 0.05 M Tris-HCl (pH 7.6), 0.5 mM MgCl2, 2.5 mM CoCl2 and 0.25 M disodium succinate at 37° C. for 30 min. Cells were fixed by the addition of 100 μl of 4% (v/v) formalin in 0.2 M Tris-HCl (pH 7.6), and after a 5 min incubation at room temperature liquid was removed and the wells were allowed to dry. Each well was rinsed with 200 μl water and cells were solubilized by the addition of 100 μl of 6.35% (v/v) 0.1 N NaOH in DMSO. The colored formazan product was measured by a Thermo MAX micro plate reader (Molecular Devices Corp. Sunnyvale, Calif.) at a wavelength of 562 nm.
We examined the effects of EGCG on TNF-α-induced cytotoxicity of the human salivary gland acinar cell line NS-SV-AC using the MTT assay.
To examine the role of activation of the p38 signaling pathway in reducing TNF-α-induced cytotoxicity, cells were exposed to TNF-[alpha] and EGCG in the presence of either the p38 MAPK inhibitor SB203580 or the MEK inhibitor PD98059.

| Compound | effect on protection by EGCG against TNF-α-induced loss of cell viability |
| --- | --- |
| COc1cccc(-c2cc(=O)c3ccccc3o2)c1N [PD98059] | significantly reduced the protective effect of EGCG |
| C[S+]([O-])c1ccc(-c2nc(-c3ccncc3)c(-c3ccc(F)cc3)[nH]2)cc1 (centres unmarked) [SB203580] | significantly reduced the protective effect of EGCG |

— US8287923B2, “Compositions and methods for treating immune disorders” (priority 2005, dated 2012)
